According to PubChem BioAssay (NCI):
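Protocol summary: plate cells (96-well), add compound at 5 concentrations, incubate 48 h, interpolate endpoints linearly. TGI is the concentration that stops growth completely.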

Tests used:
Test in all cases: NCI-60 cell line screen, 48 h
KM12 colon = test system: KM12 colon
HT29 colon = test system: HT29 colon
SNB-78 CNS = test system: SNB-78 CNS
SN12C renal = test system: SN12C renal
786-0 renal = test system: 786-0 renal
SF-295 CNS = test system: SF-295 CNS
DMS 114 small cell lung = test system: DMS 114 small cell lung
U251 CNS = test system: U251 CNS
MDA-MB-435 = test system: MDA-MB-435
MALME-3M melanoma = test system: MALME-3M melanoma
LXFL 529 NSCLC = test system: LXFL 529 NSCLC
UACC-62 melanoma = test system: UACC-62 melanoma
KM20L2 colon = test system: KM20L2 colon
ACHN renal = test system: ACHN renal
BT-549 breast = test system: BT-549 breast
COLO 205 colon = test system: COLO 205 colon
EKVX NSCLC = test system: EKVX NSCLC
SW-620 colon = test system: SW-620 colon
M14 melanoma = test system: M14 melanoma
CAKI-1 renal = test system: CAKI-1 renal
RXF 393 renal = test system: RXF 393 renal
SF-539 CNS = test system: SF-539 CNS
NCI/ADR-RES ovarian = test system: NCI/ADR-RES ovarian
HCC-2998 colon = test system: HCC-2998 colon
SK-MEL-2 melanoma = test system: SK-MEL-2 melanoma
RXF-631 renal = test system: RXF-631 renal
TK-10 renal = test system: TK-10 renal
PC-3 prostate = test system: PC-3 prostate
UACC-257 melanoma = test system: UACC-257 melanoma
DLD-1 colon = test system: DLD-1 colon
XF 498 CNS = test system: XF 498 CNS
SNB-19 CNS = test system: SNB-19 CNS
HS 578T breast = test system: HS 578T breast
MDA-MB-231 breast = test system: MDA-MB-231 breast
SR leukemia = test system: SR leukemia
SK-MEL-5 melanoma = test system: SK-MEL-5 melanoma
OVCAR-3 ovarian = test system: OVCAR-3 ovarian
NCI-H522 lung = test system: NCI-H522 lung
OVCAR-8 ovarian = test system: OVCAR-8 ovarian
M19-MEL melanoma = test system: M19-MEL melanoma
NCI-H460 lung = test system: NCI-H460 lung
A498 renal = test system: A498 renal
HOP-18 NSCLC = test system: HOP-18 NSCLC
DU-145 prostate = test system: DU-145 prostate
RPMI-8226 leukemia = test system: RPMI-8226 leukemia
HL-60(TB) leukemia = test system: HL-60(TB) leukemia
T-47D breast = test system: T-47D breast
NCI-H226 lung = test system: NCI-H226 lung
OVCAR-5 ovarian = test system: OVCAR-5 ovarian
CCRF-CEM leukemia = test system: CCRF-CEM leukemia
HOP-92 NSCLC = test system: HOP-92 NSCLC
HCT-116 colon = test system: HCT-116 colon
MDA-N = test system: MDA-N
A549 NSCLC = test system: A549 NSCLC
SK-OV-3 ovarian = test system: SK-OV-3 ovarian
LOX IMVI melanoma = test system: LOX IMVI melanoma
IGROV1 ovarian = test system: IGROV1 ovarian
DMS 273 small cell lung = test system: DMS 273 small cell lung
MCF7 breast = test system: MCF7 breast
SK-MEL-28 melanoma = test system: SK-MEL-28 melanoma
HCT-15 colon = test system: HCT-15 colon
HOP-62 NSCLC = test system: HOP-62 NSCLC
SF-268 CNS = test system: SF-268 CNS
OVCAR-4 ovarian = test system: OVCAR-4 ovarian
MOLT-4 leukemia = test system: MOLT-4 leukemia
NCI-H23 lung = test system: NCI-H23 lung
SNB-75 CNS = test system: SNB-75 CNS
K-562 leukemia = test system: K-562 leukemia
UO-31 renal = test system: UO-31 renal

## Cc1cc(N=C2C=C(Nc3cc(C)on3)C(=O)c3ccccc32)no1
KM12 colon
  TGI: > 100 µM
HT29 colon
  TGI: > 100 µM
SNB-78 CNS
  TGI: 68.1 µM
SN12C renal
  TGI: > 100 µM
786-0 renal
  TGI: 98.8 µM
SF-295 CNS
  TGI: > 100 µM
DMS 114 small cell lung
  TGI: 73.7 µM
U251 CNS
  TGI: > 95.1 µM
MDA-MB-435
  TGI: 22.5 µM
MALME-3M melanoma
  TGI: 53 µM
LXFL 529 NSCLC
  TGI: > 100 µM
UACC-62 melanoma
  TGI: 38.4 µM
KM20L2 colon
  TGI: > 100 µM
ACHN renal
  TGI: > 100 µM
BT-549 breast
  TGI: 74.9 µM
COLO 205 colon
  TGI: > 88.3 µM
EKVX NSCLC
  TGI: > 100 µM
SW-620 colon
  TGI: > 100 µM
M14 melanoma
  TGI: > 100 µM
CAKI-1 renal
  TGI: > 100 µM
RXF 393 renal
  TGI: > 65.9 µM
SF-539 CNS
  TGI: > 59.7 µM
NCI/ADR-RES ovarian
  TGI: > 100 µM
HCC-2998 colon
  TGI: > 100 µM
SK-MEL-2 melanoma
  TGI: 72.5 µM
RXF-631 renal
  TGI: > 100 µM
TK-10 renal
  TGI: > 100 µM
PC-3 prostate
  TGI: > 100 µM
UACC-257 melanoma
  TGI: 47 µM
DLD-1 colon
  TGI: > 100 µM
XF 498 CNS
  TGI: > 100 µM
SNB-19 CNS
  TGI: > 100 µM
HS 578T breast
  TGI: > 100 µM
MDA-MB-231 breast
  TGI: 28.7 µM
SR leukemia
  TGI: > 100 µM
SK-MEL-5 melanoma
  TGI: 15.9 µM
OVCAR-3 ovarian
  TGI: > 100 µM
NCI-H522 lung
  TGI: > 100 µM
OVCAR-8 ovarian
  TGI: > 100 µM
M19-MEL melanoma
  TGI: 8.12 µM
NCI-H460 lung
  TGI: > 100 µM
A498 renal
  TGI: > 100 µM
HOP-18 NSCLC
  TGI: 92.2 µM
DU-145 prostate
  TGI: > 100 µM
RPMI-8226 leukemia
  TGI: > 100 µM
HL-60(TB) leukemia
  TGI: > 100 µM
T-47D breast
  TGI: > 100 µM
NCI-H226 lung
  TGI: > 100 µM
OVCAR-5 ovarian
  TGI: > 100 µM
CCRF-CEM leukemia
  TGI: > 100 µM
HOP-92 NSCLC
  TGI: 52.6 µM
HCT-116 colon
  TGI: > 100 µM
MDA-N
  TGI: 4.02 µM
A549 NSCLC
  TGI: > 100 µM
SK-OV-3 ovarian
  TGI: > 100 µM
LOX IMVI melanoma
  TGI: > 61.5 µM
IGROV1 ovarian
  TGI: > 78.1 µM
DMS 273 small cell lung
  TGI: > 100 µM
MCF7 breast
  TGI: 63 µM
SK-MEL-28 melanoma
  TGI: > 100 µM
HCT-15 colon
  TGI: > 100 µM
HOP-62 NSCLC
  TGI: > 100 µM
SF-268 CNS
  TGI: > 100 µM
OVCAR-4 ovarian
  TGI: > 100 µM
MOLT-4 leukemia
  TGI: > 100 µM
NCI-H23 lung
  TGI: 26 µM
SNB-75 CNS
  TGI: > 87.8 µM
K-562 leukemia
  TGI: > 100 µM
UO-31 renal
  TGI: > 100 µM

## COc1ccccc1NC(=O)C1=C(C)NC(C)=C(C(=O)Nc2ccccc2OC)C1c1cccc2c1OCO2
KM12 colon
  TGI: > 100 µM
HT29 colon
  TGI: > 100 µM
SN12C renal
  TGI: > 100 µM
786-0 renal
  TGI: > 100 µM
SF-295 CNS
  TGI: > 100 µM
DMS 114 small cell lung
  TGI: > 100 µM
U251 CNS
  TGI: > 100 µM
MALME-3M melanoma
  TGI: > 100 µM
LXFL 529 NSCLC
  TGI: > 100 µM
UACC-62 melanoma
  TGI: > 100 µM
KM20L2 colon
  TGI: > 100 µM
ACHN renal
  TGI: > 100 µM
COLO 205 colon
  TGI: > 100 µM
EKVX NSCLC
  TGI: > 100 µM
SW-620 colon
  TGI: > 100 µM
M14 melanoma
  TGI: > 100 µM
CAKI-1 renal
  TGI: > 100 µM
SF-539 CNS
  TGI: > 100 µM
HCC-2998 colon
  TGI: > 100 µM
SK-MEL-2 melanoma
  TGI: > 100 µM
RXF-631 renal
  TGI: > 100 µM
TK-10 renal
  TGI: > 100 µM
UACC-257 melanoma
  TGI: > 100 µM
DLD-1 colon
  TGI: > 100 µM
SNB-19 CNS
  TGI: > 100 µM
SR leukemia
  TGI: > 100 µM
SK-MEL-5 melanoma
  TGI: > 100 µM
OVCAR-3 ovarian
  TGI: > 100 µM
OVCAR-8 ovarian
  TGI: > 100 µM
M19-MEL melanoma
  TGI: > 100 µM
NCI-H460 lung
  TGI: > 100 µM
A498 renal
  TGI: > 100 µM
HOP-18 NSCLC
  TGI: > 100 µM
RPMI-8226 leukemia
  TGI: > 100 µM
HL-60(TB) leukemia
  TGI: > 100 µM
NCI-H226 lung
  TGI: > 100 µM
OVCAR-5 ovarian
  TGI: > 100 µM
CCRF-CEM leukemia
  TGI: > 100 µM
HOP-92 NSCLC
  TGI: > 100 µM
HCT-116 colon
  TGI: > 100 µM
A549 NSCLC
  TGI: > 100 µM
SK-OV-3 ovarian
  TGI: > 100 µM
LOX IMVI melanoma
  TGI: > 100 µM
IGROV1 ovarian
  TGI: > 100 µM
DMS 273 small cell lung
  TGI: > 100 µM
SK-MEL-28 melanoma
  TGI: > 100 µM
HCT-15 colon
  TGI: > 100 µM
HOP-62 NSCLC
  TGI: > 100 µM
SF-268 CNS
  TGI: > 100 µM
OVCAR-4 ovarian
  TGI: > 100 µM
MOLT-4 leukemia
  TGI: > 100 µM
NCI-H23 lung
  TGI: > 100 µM
SNB-75 CNS
  TGI: 50.9 µM
K-562 leukemia
  TGI: > 100 µM
UO-31 renal
  TGI: > 100 µM
